This note sets out measurements from patent US11944624B2, “Peptide and small molecule agonists of EphA and their uses” (CASE WESTERN RESERVE UNIVERSITY, priority 2017, dated 2024).

“Also recorded” adds a separate entry of the source.

One assay has as its system ERK and Akt activities. Nature of the assay: ERK and Akt activities in LK133A-Vec cells (EphA2 knockout). The class given is cell-based, mice. The method, then: Cells were plated in 24-well dishes at a density of 100,000 cells/well and grown for 24 hours prior to stimulation with appropriate compounds and ephrins for the given amounts of time. Compounds were prepared in DMSO at 500 times the final concentrations and 0.2% DMSO was used as vehicle control. Following treatment, cells were lysed directly in SDS Gel Loading Buffer and immunoblotted as described previously. Immunoprecipitation and immunofluorescence staining was performed as described. For immunoprecipitation, 300,000 cells/well were plated in 6-well dishes and lysed in modified RIPA Buffer (20 mM Tris-HCl pH 7.4, 20 mM NaF, 150 mM NaCl, 10% glycerol, 0.1% SDS, 0.5% DCA, 2 mM EDTA, 1% Triton X-100) following treatment. Either 10 μg of ephrin-A1-Fc, or […] of EphA2 mouse monoclonal antibody (Clone D7, Millipore) were used, and mouse IgG was used as a negative control for EphA2 IP.
To address this question, we utilized an immortalized liver epithelial cell line, LK133A, isolated from a hepatoma induced by DEN in EphA2 knockout mice. Retroviral vector was used to restore EphA2 expression in these cells (LK133A-A2), and cells transduced with an empty vector were used as control (LK133AVec).

The target in a further assay is T1, EphB3 (Homo sapiens, UniProt P54753).
T1 construct: expressed in transfected cells; host or cells: HEK 293
T1 sequence (P54753 34-998): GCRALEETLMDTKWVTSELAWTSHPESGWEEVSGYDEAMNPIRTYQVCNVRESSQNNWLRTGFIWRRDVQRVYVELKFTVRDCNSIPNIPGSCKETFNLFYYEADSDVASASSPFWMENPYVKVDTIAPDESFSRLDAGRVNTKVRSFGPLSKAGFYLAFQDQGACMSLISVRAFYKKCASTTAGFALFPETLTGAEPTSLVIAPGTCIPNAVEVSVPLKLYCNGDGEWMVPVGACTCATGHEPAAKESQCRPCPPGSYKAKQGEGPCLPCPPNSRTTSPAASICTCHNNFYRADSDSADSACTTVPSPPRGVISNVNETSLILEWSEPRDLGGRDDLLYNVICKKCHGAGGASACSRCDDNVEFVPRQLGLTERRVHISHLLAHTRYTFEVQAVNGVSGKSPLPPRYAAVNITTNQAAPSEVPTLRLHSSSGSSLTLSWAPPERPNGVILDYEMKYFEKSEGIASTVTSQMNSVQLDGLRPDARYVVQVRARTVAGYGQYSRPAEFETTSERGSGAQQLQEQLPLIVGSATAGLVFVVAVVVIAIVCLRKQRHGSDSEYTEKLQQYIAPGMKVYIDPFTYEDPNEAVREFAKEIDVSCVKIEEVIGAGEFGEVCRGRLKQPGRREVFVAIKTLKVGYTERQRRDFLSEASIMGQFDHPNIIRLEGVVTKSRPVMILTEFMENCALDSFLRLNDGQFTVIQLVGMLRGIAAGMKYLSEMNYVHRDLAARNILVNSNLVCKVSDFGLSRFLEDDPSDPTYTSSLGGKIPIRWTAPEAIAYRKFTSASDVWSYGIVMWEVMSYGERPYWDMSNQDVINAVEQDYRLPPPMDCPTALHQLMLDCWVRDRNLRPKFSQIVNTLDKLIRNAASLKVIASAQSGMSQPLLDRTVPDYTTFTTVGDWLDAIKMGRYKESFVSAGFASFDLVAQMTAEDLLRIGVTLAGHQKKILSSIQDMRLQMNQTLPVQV
Nature of the assay: EphB3 activation in HEK 293 cells overexpressing EphB3. The format is cell-based. The conditions noted are these: HEK 293 overexpressing EphB3, high basal activation.

The test system of assay [1] is MDA-MB-231, A172-A2 and PC3-DAB2IP KD cells. Nature of the assay: Chemotactic cell migration toward hepatocyte growth factor (HGF). The class given is cell-based. The following applies: all three cell lines. The source says: One of the well-established functions of Eph receptors is the ligand-dependent repulsive guidance of cell migration. As a ligand-mimicking agonist for EphA2, doxazosin is expected to activate EphA2 on tumor cells and repulse migrating tumor cells in vitro. […] The inhibitory effects were observed when doxazosin was presented either in the bottom chamber, or in both top and bottom chambers in the Transwell assay system. […] Therefore, doxazosin can recapitulate a key function attributed to its native ligands, i.e., negative regulation of cell migration.

Assay [2] addresses T2, rat α1a adrenergic receptor (Rattus norvegicus, UniProt P43140).
T2 construct: Eurofins Panlabs Taiwan, Ltd. (contract assay)
T2 sequence (P43140 1-466): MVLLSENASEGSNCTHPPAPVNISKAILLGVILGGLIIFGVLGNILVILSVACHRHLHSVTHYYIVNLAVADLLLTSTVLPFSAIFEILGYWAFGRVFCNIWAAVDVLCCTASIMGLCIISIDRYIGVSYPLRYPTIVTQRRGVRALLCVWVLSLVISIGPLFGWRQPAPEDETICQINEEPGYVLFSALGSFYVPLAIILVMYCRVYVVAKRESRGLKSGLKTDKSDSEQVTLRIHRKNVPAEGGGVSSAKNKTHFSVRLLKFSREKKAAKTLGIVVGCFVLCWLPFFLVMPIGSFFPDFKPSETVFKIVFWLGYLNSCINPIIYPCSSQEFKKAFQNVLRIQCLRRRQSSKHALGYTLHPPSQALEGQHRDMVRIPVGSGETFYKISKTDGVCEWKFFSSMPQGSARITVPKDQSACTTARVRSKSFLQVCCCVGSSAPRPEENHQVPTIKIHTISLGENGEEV
Nature of the assay: Adrenoceptor binding, [3H]-prazosin competition. The conditions noted are these: [3H]-prazosin 0.25 nM, triplicate, mean±SD; read-out: IC50, α-adrenoceptor binding. The method, then: Analysis of Doxazosin and analog binding to rat α1a adrenergic receptor was performed by Eurofins Panlabs Taiwan, Ltd. (Taiwan). [^3H]-prazosin at 0.25 nM was used as the radioligand. […] Non-specific binding was defined by use of 10 μM phentolamine. Incubations were terminated by vacuum filtration over 0.1% PEI pretreated glass fiber filters and filters were washed for 10 s with ice cold 0.1M NaCl and radioactivity retained on the filters was determined by liquid scintillation spectrometry. IC50 values were determined by a non-linear regression analysis using GraphPad Prism v.5 (GraphPad).

Description for EphB3: Cells were plated in 24-well dishes at a density of 100,000 cells/well and grown for 24 hours prior to stimulation with appropriate compounds and ephrins for the given amounts of time. Compounds were prepared in DMSO at 500 times the final concentrations and 0.2% DMSO was used as vehicle control. Following treatment, cells were lysed directly in SDS Gel Loading Buffer and immunoblotted as described previously. […] For immunoprecipitation, 300,000 cells/well were plated in 6-well dishes and lysed in modified RIPA Buffer (20 mM Tris-HCl pH 7.4, 20 mM NaF, 150 mM NaCl, 10% glycerol, 0.1% SDS, 0.5% DCA, 2 mM EDTA, 1% Triton X-100) following treatment. Either 10 μg of ephrin-A1-Fc, or 4 mg of EphA2 mouse monoclonal antibody (Clone D7, Millipore) were used, and mouse IgG was used as a negative control for EphA2 IP. […] For this purpose, HEK 293 cell lines overexpressing EphA1, EphA2, EphA3, EphA4, and EphB3 kinases were utilized.

Turning to `COc1cc2nc(N3CCN(C(=O)C4COc5ccccc5O4)CC3)nc(N)c2cc1OC` (stereo not shown) [Doxazosin, 2-[4-(2,3-Dihydro-1,4-benzodioxine-2-carbonyl)piperazin-1-yl]-6,7-dimethoxyquinazolin-4-amine], the “effect on ERK and Akt activities in absence of EphA2” value in the assay on ERK and Akt activities was “neither doxazosin nor ephrin-A1-Fc was able to inhibit ERK and Akt activities; also recorded: notable increase in ERK and Akt activation”. For the same molecule, the EphB3 activation result at EphB3 is recorded as “notable decrease in EphB3 activation”. The “chemotactic cell migration toward HGF” value in assay [1] is listed as “dose-dependent inhibition”. Moreover, the IC50 in assay [2] stood at 740 ± 300 pM.
